pIC50, pKd: −log10 of the molar value. The source made the active and inactive calls. The calls are words filed in the database; no cut-off is given here. Positions of bridges follow the written chain, without caps; N, C: chain ends. Residues, ends and D or L forms follow the SMILES beside them.
Experiments:
[1] = Displacement of 5-TAMRA-SRDLFSVTFDLGFCSPDSDD-NH2 from recombinant N-terminal 6His/SUMO-tagged RMI1/2 (unknown origin) extracted from Escherichia coli BL21 (DE3) cells incubated for 1 hrs by competitive fluorescence polarization assay; parameters: species or system Homo sapiens; details: for Activity: Homo sapiens
[2] = Binding affinity to N-terminal 6His/Avi-tagged biotinylated RMI1/2 (unknown origin) extracted from Escherichia coli BL21 (DE3) cells assessed as dissociation constant by SPR analysis; parameters: species or system Homo sapiens
[3] = Proteolytic stability in Tris-HCl buffer at pH 7.8 assessed as alpha-chymotrypsin (unknown origin) mediated compound degradation at 20 uM incubated for 5 hrs by HPLC analysis; format: ADME; details: human, pH 7.8, 5 h
U2OS = assay: Disruption of FANCM-RMI1/2 protein-protein interaction in human U2OS cells assessed as reduction in FANCM pull down at 100 uM incubated for 4 hrs by co-immunoprecipitation based Western blot analysis; format: cell-based
Homo sapiens = species: Homo sapiens; assay: Binding affinity to N-terminal 6His/Avi-tagged biotinylated RMI1/2 (unknown origin) extracted from Escherichia coli BL21 (DE3)cells by SPR analysis

Compound	pIC50 [1]	also measured
CC[C@H](C)[C@H](NC(=O)[C@H](CO)NC(=O)[C@H](Cc1ccc(O)cc1)NC(=O)[C@H](Cc1ccc(O)cc1)NC(=O)[C@H](CCCCN)NC(=O)[C@H](CC(=O)O)NC(=O)[C@H](Cc1ccccc1)NC(=O)[C@H](CC(C)C)NC(=O)[C@H](C)NC(=O)[C@H](CO)NC(=O)[C@H](Cc1ccc(O)cc1)NC(C)=O)C(=O)N1CCC[C@H]1C(=O)N[C@H](CS)C(N)=O	5.35	
CC[C@H](C)[C@@H]1NC(=O)[C@H](CC(=O)O)NC(=O)CSC[C@@H](C(N)=O)NC(=O)[C@H](CO)NC(=O)[C@H](Cc2ccccc2)NC(=O)[C@H](Cc2ccc(O)cc2)NC(=O)[C@@H]2CCCN2C(=O)[C@H]([C@@H](C)CC)NC(=O)[C@H](Cc2ccc(O)cc2)NC(=O)[C@H](CO)NC(=O)[C@H](CC(C)C)NC(=O)[C@H](Cc2ccc(O)cc2)NC(=O)[C@H](CCCCN)NC1=O ({CH2CO}-DIKYLSYIPYFSC-NH2; thioether N-13)		Activity [1]: inactive
CC[C@H](C)[C@@H]1NC(=O)[C@H](Cc2ccccc2)NC(=O)[C@H](CO)NC(=O)[C@H]([C@@H](C)CC)NC(=O)[C@H](Cc2ccc(O)cc2)NC(=O)[C@H](CC(=O)O)NC(=O)[C@@H]2CCCN2C(=O)[C@H](CCCCN)NC(=O)[C@H](CC(C)C)NC(=O)CSC[C@@H](C(N)=O)NC(=O)[C@H](Cc2ccc(O)cc2)NC(=O)[C@H](Cc2ccc(O)cc2)NC(=O)[C@H](CO)NC1=O ({CH2CO}-LKPDYISFISYYC-NH2; thioether N-13)		Activity [1]: inactive
CC[C@H](C)[C@@H]1NC(=O)[C@H](Cc2ccc(O)cc2)NC(=O)CSC[C@@H](C(=O)N[C@@H](CC(C)C)C(=O)N[C@@H](Cc2c[nH]c3ccccc23)C(=O)N[C@@H](CO)C(N)=O)NC(=O)[C@H](Cc2ccccc2)NC(=O)[C@H](CCCCN)NC(=O)[C@H]([C@@H](C)CC)NC(=O)[C@H](C(C)C)NC(=O)[C@H]([C@@H](C)O)NC(=O)[C@H](CC(=O)O)NC(=O)[C@H]([C@@H](C)O)NC(=O)[C@H](Cc2c[nH]c3ccccc23)NC(=O)[C@H](CCCNC(=N)N)NC(=O)[C@H](CC(N)=O)NC(=O)[C@H]([C@@H](C)O)NC1=O ({CH2CO}-YITNRWTDTVIKFCLWS-NH2; thioether N-14)	6.98	pKd [2]: 8.70
CC(C)C[C@@H]1NC(=O)[C@H](CCCNC(=N)N)NC(=O)[C@H](Cc2ccc(O)cc2)NC(=O)CSC[C@@H](C(N)=O)NC(=O)[C@@H]2CCCN2C(=O)[C@H](CC(C)C)NC(=O)[C@H](CCCCN)NC(=O)[C@H](Cc2ccc(O)cc2)NC(=O)[C@H]([C@@H](C)O)NC(=O)[C@H](CCC(N)=O)NC(=O)[C@H](Cc2ccccc2)NC(=O)[C@H](Cc2ccccc2)NC(=O)[C@H](Cc2c[nH]c3ccccc23)NC1=O ({CH2CO}-YRLWFFQTYKLPC-NH2; thioether N-13)	7.11	pKd [2]: 8.00
CC[C@H](C)[C@@H]1NC(=O)[C@H](CO)NC(=O)[C@H](Cc2ccc(O)cc2)NC(=O)CSC[C@@H](C(N)=O)NC(=O)[C@@H]2CCCN2C(=O)[C@H]([C@@H](C)CC)NC(=O)[C@H](CO)NC(=O)[C@H](Cc2ccc(O)cc2)NC(=O)[C@H](Cc2ccc(O)cc2)NC(=O)[C@H](CCCCN)NC(=O)[C@H](CC(=O)O)NC(=O)[C@H](Cc2ccccc2)NC(=O)[C@H](CC(C)C)NC1=O ({CH2CO}-YSILFDKYYSIPC-NH2; thioether N-13)	7.27	Stability [3]: Stable; pKd [2]: 8.60; Activity (U2OS): Active
CC[C@H](C)[C@H](NC(=O)[C@H](CC(=O)O)NC(=O)[C@@H]1CSCC(=O)N[C@@H](Cc2ccc(O)cc2)C(=O)N[C@@H](Cc2ccc(O)cc2)C(=O)N[C@@H](CCCCN)C(=O)N2CCC[C@H]2C(=O)N[C@@H]([C@@H](C)O)C(=O)N1)C(=O)N[C@H](C(=O)N[C@@H](CC(C)C)C(=O)N[C@@H](Cc1ccccc1)C(=O)N[C@@H](Cc1c[nH]c2ccccc12)C(=O)N[C@@H](CO)C(N)=O)[C@@H](C)CC ({CH2CO}-YYKPTCDIILFWS-NH2; thioether N-6)	< 5.30	Activity (Homo sapiens): inactive
Ac-ASILFDKYYSIPC-NH2	6.15	
Ac-YAILFDKYYSIPC-NH2	6.94	
Ac-YSIAFDKYYSIPC-NH2	6.30	
Ac-YSILADKYYSIPC-NH2	< 5.30	
Ac-YSILFAKYYSIPC-NH2	6.36	
Ac-YSILFDAYYDSIPC-NH2	7.02	
Ac-YSILFDKAYSIPC-NH2	6.47	
Ac-YSILFDKYASIPC-NH2	< 5.30	
Ac-YSILFDKYYAIPC-NH2	7.16	
Ac-YSILFDKYYSAPC-NH2	6.00	
Ac-YSILFDKYYSIAC-NH2	6.94	
Ac-YSILFDKYYSIPC-NH2	< 5.30	

Reference: ChEMBL document CHEMBL6182932, “Potent Cyclic Peptide Inhibitors Disrupt the FANCM-RMI Interaction” (J Med Chem, 2025)
